Values quoted from earlier work, collected in publication PMC10360060, “Electroosmotic Perfusion, External Microdialysis: Simulation and Experiment” (ACS Chemical Neuroscience, 2023).
Like-named read-outs stand apart in the source and are kept apart here.

Key:
[1] = saline solution, parameter used in simulations, ref Li and Carr, Scheibel, Häckel et al.[65]−[67]
Text: Table 1 List of Parameters Used in Simulations | column: magnitude

[2] = tested on: insulin regulated aminopeptidase (IRAP); settings: perfusion of inhibitor in rat neocortex in vivo, online capillary LC-MS2
Text: Following our discovery that brain tissue has a significant ζ-potential,[36] we learned how to use this property of brain tissue to infuse solutes into brain and organotypic hippocampal slice cultures (OHSCs) using controlled electrical current[37],[38] and to infuse substrates of known ectoenzymes and determine information about these enzymes in OHSCs[39]−[43] and in vivo.[44] For the in vivo work, direct laser writing by two-photon polymerization was used to manufacture a device (Supporting Information, section S3). A pointed, narrow capillary adjacent to a microdialysis probe was the source ...

[3] = 37 °C (body temperature, tissue)

inhibition of YGGFL hydrolysis [2] | Molecule | Diffusion coefficients ([1]; 22 °C (lab temperature)) | Diffusion coefficients [1, 3]
 | GGFL [hydrolysis product of YGGFL] | 5.0 × 10^–10 m^2/s | 6.5 × 10^–10 m^2/s
 | YGGFL [leucine enkephalin, natural neuropeptide substrate infused through tissue] | 4.2 × 10^–10 m^2/s | 5.5 × 10^–10 m^2/s
dose-dependent inhibition | CCOC(=O)C1=C(NC(C)=O)Oc2cc(O)ccc2C1c1cccnc1 (centres unmarked) [HFI-419] |  | 
